{"source": "ChEMBL document CHEMBL5042526", "about": "“Design, Synthesis, and Biological Evaluation of Triazolone Derivatives as Potent PPARα/δ Dual Agonists for the Treatment of Nonalcoholic Steatohepatitis” (J Med Chem, 2022)", "key": {"Mus musculus [1]": {"test_system": "Mus musculus", "experiment": "In vivo agonist activity against PPARalpha/delta assessed as upregulation of Abca1 mRNA expression in C57BL/6Nifdc mouse skeletal muscle at 10 mg/kg, po for 4 days", "format": "functional, organism-based", "conditions": "time 4.0 day"}, "[2]": {"target": "T1, Peroxisome proliferator-activated receptor gamma (Mus musculus, UniProt P37238)", "T1 sequence (P37238 whole entry)": "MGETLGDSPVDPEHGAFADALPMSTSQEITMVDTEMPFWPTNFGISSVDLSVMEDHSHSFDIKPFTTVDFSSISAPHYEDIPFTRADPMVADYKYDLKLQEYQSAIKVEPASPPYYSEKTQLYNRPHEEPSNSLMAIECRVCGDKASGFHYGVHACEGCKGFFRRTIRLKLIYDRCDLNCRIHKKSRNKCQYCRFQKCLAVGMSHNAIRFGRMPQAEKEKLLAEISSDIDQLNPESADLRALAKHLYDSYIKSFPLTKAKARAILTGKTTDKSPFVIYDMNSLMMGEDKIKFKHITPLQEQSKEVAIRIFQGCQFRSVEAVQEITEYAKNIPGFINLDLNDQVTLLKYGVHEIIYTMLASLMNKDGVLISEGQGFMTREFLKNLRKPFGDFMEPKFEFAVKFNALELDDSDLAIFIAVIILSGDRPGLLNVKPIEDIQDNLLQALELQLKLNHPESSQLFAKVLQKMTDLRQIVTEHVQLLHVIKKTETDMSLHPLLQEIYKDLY", "experiment": "Agonist activity at mouse PPARgamma in Cos7 cells transfected with pBIND and pGL4.35 Gal4 UAS Luc reporter plasmid by measuring luciferase activity incubated for 16 hrs by luciferase reporter gene assay"}, "Mus musculus [3]": {"test_system": "Mus musculus", "experiment": "In vivo agonist activity against PPARalpha/delta assessed as upregulation of Cd36 mRNA expression in C57BL/6Nifdc mouse liver at 10 mg/kg, po for 4 days", "format": "functional, organism-based", "conditions": "time 4.0 day"}, "Mus musculus [4]": {"test_system": "Mus musculus", "experiment": "In vivo agonist activity against PPARalpha/delta assessed as upregulation of […] mRNA expression in C57BL/6Nifdc mouse skeletal muscle at 10 mg/kg, po for 4 days", "format": "functional, organism-based", "conditions": "time 4.0 day"}, "Mus musculus [5]": {"test_system": "Mus musculus", "experiment": "In vivo agonist activity at PPARalpha/delta assessed as upregulation of Hmgcs2 mRNA expression in C57BL/6Nifdc mouse liver at 10 mg/kg, po for 4 days", "format": "functional, organism-based", "conditions": "time 4.0 day"}, "Mus musculus [6]": {"test_system": "Mus musculus", "experiment": "Anti-inflammatory activity in HF-CDAA-induced nonalcoholic steatohepatitis C57BL/6JNifdc mouse model assessed as decrease in Ccl4 mRNA expression at 10 mg/kg, po", "format": "functional, organism-based"}, "Mus musculus [7]": {"test_system": "Mus musculus", "experiment": "Anti-NASH activity in HF-CDAA-induced nonalcoholic steatohepatitis C57BL/6JNifdc mouse model assessed as reduction in steatosis by measuring hepatic triglyceride level at 3 to 30 mg/kg, po", "format": "functional, organism-based", "conditions": "dose 3-30 mg/kg"}, "Mus musculus [8]": {"test_system": "Mus musculus", "experiment": "Anti-NASH activity in HF-CDAA-induced nonalcoholic steatohepatitis C57BL/6JNifdc mouse model assessed as lipid drop size at 3 to 30 mg/kg, po by H and E staining method", "format": "functional, organism-based", "conditions": "dose 3-30 mg/kg"}, "Mus musculus [9]": {"test_system": "Mus musculus", "experiment": "Anti-inflammatory activity in HF-CDAA-induced nonalcoholic steatohepatitis C57BL/6JNifdc mouse model assessed as decrease in Tnf mRNA expression at 10 mg/kg, po", "format": "functional, organism-based"}, "Mus musculus [10]": {"test_system": "Mus musculus", "experiment": "Anti-inflammatory activity in HF-CDAA-induced nonalcoholic steatohepatitis C57BL/6JNifdc mouse model assessed as decrease in Adgre1 mRNA expression at 10 mg/kg, po", "format": "functional, organism-based"}, "COS7": {"test_system": "COS7", "experiment": "Agonist activity at human FXR (193 to 486 residues) in Cos7 cells transfected with LBD-Gal4 and pGL435 Gal4 UAS Luc reporter plasmid at 10 uM by reporter gene assay", "format": "cell-based"}, "Mus musculus [11]": {"test_system": "Mus musculus", "experiment": "In vivo agonist activity against PPARalpha/delta assessed as upregulation of Hadn-mRNA expression in C57BL/6Nifdc mouse liver at 10 mg/kg, po for 4 days", "format": "functional, organism-based", "conditions": "time 4.0 day"}, "Mus musculus [12]": {"test_system": "Mus musculus", "experiment": "In vivo agonist activity against PPARalpha/delta assessed as upregulation of Fabp1 mRNA expression in C57BL/6Nifdc mouse liver at 10 mg/kg, po for 4 days", "format": "functional, organism-based", "conditions": "time 4.0 day"}, "Mus musculus [13]": {"test_system": "Mus musculus", "experiment": "In vivo agonist activity at PPARalpha/delta assessed as upregulation of Cdkn1a mRNA expression in C57BL/6Nifdc mouse liver at 10 mg/kg, po for 4 days", "format": "functional, organism-based", "conditions": "time 4.0 day"}, "Mus musculus [14]": {"test_system": "Mus musculus", "experiment": "Anti-NASH activity in HF-CDAA-induced nonalcoholic steatohepatitis C57BL/6JNifdc mouse model assessed as lipid number at 3 to 30 mg/kg, po by H and E staining method", "format": "functional, organism-based", "conditions": "dose 3-30 mg/kg"}, "Mus musculus [15]": {"test_system": "Mus musculus", "experiment": "In vivo agonist activity at PPARalpha/delta assessed as upregulation of Fads2 mRNA expression in C57BL/6Nifdc mouse liver at 10 mg/kg, po for 4 days", "format": "functional, organism-based", "conditions": "time 4.0 day"}, "AML12 [16]": {"test_system": "AML12", "experiment": "Agonist activity against PPARalpha/delta (unknown origin) assessed as upregulation of ACADVL mRNA expression in […] cells at 8 nM incubated for 12 hrs by RT-PCR analysis", "format": "cell-based", "conditions": "filed as agonist"}, "Mus musculus [17]": {"test_system": "Mus musculus", "experiment": "Anti-fibrosis effect in CCl4 induced liver fibrosis C57BL/6JNifdc mouse model assessed as downregulation of alpha-SMA expression at 3 to 30 mg/kg, po after 20 hrs by Western blot analysis", "format": "functional, organism-based", "conditions": "dose 3-30 mg/kg"}, "Mus musculus [18]": {"test_system": "Mus musculus", "experiment": "Anti-fibrosis effect in CCl4 induced liver fibrosis C57BL/6JNifdc mouse model assessed as downregulation of Col1a1 expression at 3 to 30 mg/kg, po after 20 hrs by Western blot analysis", "format": "functional, organism-based", "conditions": "dose 3-30 mg/kg"}, "[19]": {"experiment": "Microsomal stability in human liver microsomes assessed as terminal elimination half life at 1 uM measured upto 60 mins by LC-MS/MS-11 analysis", "format": "ADME, Microsome"}, "AML12 [20]": {"test_system": "AML12", "experiment": "Agonist activity against PPARalpha/delta (unknown origin) assessed as upregulation of Cpt1A mRNA expression in […] cells at 8 nM incubated for 12 hrs by RT-PCR analysis", "format": "cell-based", "conditions": "filed as agonist"}, "Mus musculus [21]": {"test_system": "Mus musculus", "experiment": "In vivo agonist activity at PPARalpha/delta assessed as upregulation of Akr1c18 mRNA expression in C57BL/6Nifdc mouse liver at 10 mg/kg, po for 4 days", "format": "functional, organism-based", "conditions": "time 4.0 day"}, "[22]": {"target": "Voltage-gated inwardly rectifying potassium channel KCNH2 (Homo sapiens, UniProt Q12809)", "sequence (Q12809 whole entry)": "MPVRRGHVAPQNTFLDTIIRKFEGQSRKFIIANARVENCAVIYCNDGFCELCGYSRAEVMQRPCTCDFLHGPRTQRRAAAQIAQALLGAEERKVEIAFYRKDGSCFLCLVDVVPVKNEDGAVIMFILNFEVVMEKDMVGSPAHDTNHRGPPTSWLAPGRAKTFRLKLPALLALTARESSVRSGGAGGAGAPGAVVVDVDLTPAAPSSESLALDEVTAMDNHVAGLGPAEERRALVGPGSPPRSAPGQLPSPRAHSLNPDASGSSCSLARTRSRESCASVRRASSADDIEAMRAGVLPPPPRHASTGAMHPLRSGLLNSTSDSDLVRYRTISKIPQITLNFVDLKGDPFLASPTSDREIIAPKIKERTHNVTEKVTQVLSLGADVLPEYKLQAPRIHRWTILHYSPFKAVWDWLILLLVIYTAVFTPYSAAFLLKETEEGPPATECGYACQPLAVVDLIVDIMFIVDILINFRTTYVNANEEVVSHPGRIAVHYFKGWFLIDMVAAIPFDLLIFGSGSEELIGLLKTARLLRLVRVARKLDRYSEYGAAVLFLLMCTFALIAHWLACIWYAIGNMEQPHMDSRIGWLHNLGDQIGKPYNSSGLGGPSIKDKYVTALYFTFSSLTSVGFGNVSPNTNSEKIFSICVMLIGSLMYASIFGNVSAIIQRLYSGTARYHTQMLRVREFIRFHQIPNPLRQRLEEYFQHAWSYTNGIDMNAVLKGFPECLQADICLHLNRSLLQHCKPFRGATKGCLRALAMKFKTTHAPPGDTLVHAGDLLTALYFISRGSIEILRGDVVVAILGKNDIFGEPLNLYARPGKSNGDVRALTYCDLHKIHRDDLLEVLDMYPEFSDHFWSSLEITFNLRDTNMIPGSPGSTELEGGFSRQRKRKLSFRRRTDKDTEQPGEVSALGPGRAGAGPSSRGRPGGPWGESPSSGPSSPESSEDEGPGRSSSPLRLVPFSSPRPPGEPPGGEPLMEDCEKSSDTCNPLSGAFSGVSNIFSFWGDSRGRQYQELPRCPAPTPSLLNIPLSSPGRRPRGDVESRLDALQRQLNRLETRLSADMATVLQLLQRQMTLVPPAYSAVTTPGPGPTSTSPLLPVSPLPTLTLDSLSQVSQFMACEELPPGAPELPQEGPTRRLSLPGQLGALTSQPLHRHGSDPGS", "experiment": "Inhibition of hERG potassium channel in HEK293 cells upto 30 uM by whole-cell patch clamp assay", "format": "toxicity, cell-based"}, "Mus musculus [23]": {"test_system": "Mus musculus", "experiment": "In vivo agonist activity against PPARalpha/delta assessed as upregulation of Cpt2 mRNA expression in C57BL/6Nifdc mouse skeletal muscle at 10 mg/kg, po for 4 days", "format": "functional, organism-based", "conditions": "time 4.0 day"}, "Mus musculus [24]": {"test_system": "Mus musculus", "experiment": "In vivo agonist activity against PPARalpha/delta assessed as upregulation of Plin5 mRNA expression in C57BL/6Nifdc mouse skeletal muscle at 10 mg/kg, po for 4 days", "format": "functional, organism-based", "conditions": "time 4.0 day"}, "Mus musculus [25]": {"test_system": "Mus musculus", "experiment": "In vivo agonist activity against PPARalpha/delta assessed as upregulation of Cd36 mRNA expression in C57BL/6Nifdc mouse skeletal muscle at 10 mg/kg, po for 4 days", "format": "functional, organism-based", "conditions": "time 4.0 day"}, "Mus musculus [26]": {"test_system": "Mus musculus", "experiment": "Anti-NASH activity in HF-CDAA-induced nonalcoholic steatohepatitis C57BL/6JNifdc mouse model assessed as decrease in level of serum ALT 10 mg/kg, po by automatic biochemical analysis", "format": "functional, organism-based"}, "Mus musculus [27]": {"test_system": "Mus musculus", "experiment": "In vivo agonist activity against PPARalpha/delta assessed as upregulation of Nfkbia-mRNA expression in C57BL/6Nifdc mouse skeletal muscle at 10 mg/kg, po for 4 days", "format": "functional, organism-based", "conditions": "time 4.0 day"}}, "note": "Activity calls are given as the source filed them. The calls are words filed in the database; no cut-off is given here."}
{"smiles": "Cc1cc(Cn2ncn(-c3ccc(OC(F)(F)F)cc3)c2=O)cc(C)c1OC(C)(C)C(=O)O", "values": [{"measurement": "Activity", "setting": "Mus musculus [1]", "result": "Active"}, {"measurement": "EC50", "setting": "[2]", "result": 1010, "unit": "nM"}, {"measurement": "Activity", "setting": "Mus musculus [3]", "result": "Active"}, {"measurement": "Activity", "setting": "Mus musculus [4]", "result": "Active"}, {"measurement": "Activity", "setting": "Mus musculus [5]", "result": "Active"}, {"measurement": "Activity", "setting": "Mus musculus [6]", "result": "Active"}, {"measurement": "Activity", "setting": "Mus musculus [7]", "result": "Active"}, {"measurement": "Activity", "setting": "Mus musculus [8]", "result": "Active"}, {"measurement": "Activity", "setting": "Mus musculus [9]", "result": "Active"}, {"measurement": "Activity", "setting": "Mus musculus [10]", "result": "Active"}, {"measurement": "Activity", "setting": "COS7", "result": "inactive"}, {"measurement": "Activity", "setting": "Mus musculus [11]", "result": "Active"}, {"measurement": "Activity", "setting": "Mus musculus [12]", "result": "Active"}, {"measurement": "Activity", "setting": "Mus musculus [13]", "result": "Active"}, {"measurement": "Activity", "setting": "Mus musculus [14]", "result": "Active"}, {"measurement": "Activity", "setting": "Mus musculus [15]", "result": "Active"}, {"measurement": "Activity", "setting": "AML12 [16]", "result": "Active"}, {"measurement": "Activity", "setting": "Mus musculus [17]", "result": "Active"}, {"measurement": "Activity", "setting": "Mus musculus [18]", "result": "Active"}, {"measurement": "half-life at 1 µM", "setting": "[19]", "result": "> 2", "unit": "h"}, {"measurement": "Activity", "setting": "AML12 [20]", "result": "Active"}, {"measurement": "Activity", "setting": "Mus musculus [21]", "result": "Active"}, {"measurement": "inhibition (INH)", "setting": "[22]", "result": "Active"}, {"measurement": "Activity", "setting": "Mus musculus [23]", "result": "Active"}, {"measurement": "Activity", "setting": "Mus musculus [24]", "result": "Active"}, {"measurement": "Activity", "setting": "Mus musculus [25]", "result": "Active"}, {"measurement": "Activity", "setting": "Mus musculus [26]", "result": "Active"}, {"measurement": "Activity", "setting": "Mus musculus [27]", "result": "Active"}]}
